Data set [1] concerns S. aureus. In kind it is cell-based, Staphylococcus aureus (NBRC100910). The method, then: (§1) S. aureus (NBRC100910), E. coli W3110 (NBRC12713), E. hirae (NBRC3181), C. albicans (NBRC1385), and S. Typhimurium 14028s (ATCC14028)[2] were used in this study. S. aureus, E. coli, and S. Typhimurium were grown at 37 °C with aeration in Muller-Hinton II medium (BD Biosciences). E. hirae was grown at 37 °C in LB medium (Nacalai Tesque, Inc.) containing 0.5% glucose (w/v). C. albicans was grown at room temperature with aeration in YM medium (BD Biosciences). All experiments were conducted using bacterial cells and C. albicans in the logarithmic-phase of growth.
(§2) Bacterial suspensions in Muller-Hinton II medium were adjusted to an optical density of 550 nm (OD550) = 0.0011. C. albicans suspensions in YM medium were adjusted to OD650 = 0.033. Peptides were serially diluted in 10 mM phosphate buffer (pH 6.0) containing 130 mM sodium chloride, 0.2% bovine serum albumin, and 2.56% dimethyl sulfoxide. The peptide solution (100 μl) was mixed with 100 μl of bacteria or C. albicans suspensions. Bacterial cultures were incubated for one day at 37 °C. C. albicans cultures were incubated for two days at room temperature. Cell growth was monitored optically and the MIC was determined.

In data set [2] the test system is E. coli. In kind it is cell-based, Escherichia coli W3110 (NBRC12713). Particulars: pH 6. The method, then:
as §1, §2

Data set [3] has as its system C. albicans. The data set is classed as cell-based, Candida albicans (NBRC1385). The method, then:
as §1, §2

Data set [4] concerns S. aureus. Nature of the data set: Assay for antimicrobial activity (10 min exposure, CFU). Particulars: for antimicrobial activity (CFU), D-form compared with L-form: 10 min at 37 °C. In kind it is cell-based, Staphylococcus aureus (NBRC100910). How it is done: as §1
(§3) Bacteria and C. albicans were suspended in growth medium. Peptides suspended in dimethyl sulfoxide were serially diluted in 10 mM phosphate buffer (pH 6.0) containing 130 mM sodium chloride, 0.2% bovine serum albumin as described previously. In order to examine the effects of bovine serum albumin on the assay, 10 mM phosphate buffer (pH 6.0) containing 130 mM sodium chloride, was used for the dilution of peptides. Peptide solution (500 μl) was added to 500 μl of bacteria suspensions and then the mixture was incubated at 37 °C for 10 min. In order to examine the effects of culture medium components on the assay, bacteria suspension was prepared with 10 mM phosphate buffer (pH 6.0) containing 130 mM sodium chloride. Alternatively, 500 μl of peptide solution was added to 500 μl of C. albicans suspensions and the mixture was incubated at room temperature for 10 min. The inhibitory effects of the bacterial components were analyzed by incubating 450 μl of S. aureus suspension with 500 μl of peptide solution plus 50 μl of inhibitor samples at 37 °C for 10 min. Then, the peptide/bacteria suspensions were diluted and plated onto LB agar, LB agar containing 0.5% glucose, or YM agar. After cultivation of the plates, colony forming units (CFU) in the peptide/bacteria suspension were calculated based on the average of triplicate plates.

For data set [5], the system named is E. hirae. Described as above. In kind it is cell-based, Enterococcus hirae (NBRC3181). As to conditions: 10 min at 37 °C, triplicate plates. The method, then:
as §1
(§4) Bacteria and C. albicans were suspended in growth medium. Peptides suspended in dimethyl sulfoxide were serially diluted in 10 mM phosphate buffer (pH 6.0) containing 130 mM sodium chloride, 0.2% bovine serum albumin as described previously. In order to examine the effects of bovine serum albumin on the assay, 10 mM phosphate buffer (pH 6.0) containing 130 mM sodium chloride, was used for the dilution of peptides. […] The inhibitory effects of the bacterial components were analyzed by incubating 450 μl of S. aureus suspension with 500 μl of peptide solution plus 50 μl of inhibitor samples at 37 °C for 10 min. […] After cultivation of the plates, colony forming units (CFU) in the peptide/bacteria suspension were calculated based on the average of triplicate plates.

The subject of data set [6] is E. coli. Described as above. In kind it is cell-based, Escherichia coli W3110 (NBRC12713). As to conditions: 10 min at 37 °C, triplicate plates. How it is done: as §1, §4
In data set [7] the test system is S. Typhimurium. The description is as above. The data set is classed as cell-based, Salmonella enterica serovar Typhimurium 14028s. As to conditions: 10 min at 37 °C, triplicate plates. The method, then: as §1, §4
In data set [8] the test system is S. aureus. Briefly: Assay for membrane permeability (ethidium influx). The data set is classed as cell-based, Staphylococcus aureus. Particulars: 20 μg/ml peptide, fluorescence for 180 sec, 10 mM phosphate buffer pH 6.0, 130 mM NaCl, 0.2% BSA. How it is done: To examine membrane permeability, ethidium influx rates were examined as previously described. S. aureus suspension cultures were adjusted to an OD600 of 0.4 in 10 mM phosphate buffer (pH 6.0) containing 130 mM sodium chloride and 0.2% bovine serum albumin. Then, peptide in dimethyl sulfoxide (8 μl) or dimethyl sulfoxide alone (8 μl) was added to 2 ml of S. aureus suspensions. At 30 sec after the addition of peptide, ethidium bromide was added to a final concentration of 5 μg/ml, and fluorescence of the ethidium-nucleic acid complex was monitored using a RF-5300PC spectrofluorometer (Shimadzu). Excitation and emission wavelengths were 545 nm with 5 nm slits and 600 nm with 10 nm slits, respectively.

Data set [9] concerns S. aureus. Nature of the data set: Inhibition of antimicrobial activity by bacterial cell wall components. In kind it is cell-based, Staphylococcus aureus. As to conditions: D-form 1.9 μg/ml, L-form 7.5 μg/ml, 10 min. The method, then: as §3
Peptidoglycan (120 μg) prepared from S. aureus was added to 1 mg/ml of lysozyme in phosphate buffered saline (150 μl)[33]. Peptidoglycan without lysozyme and lysozyme without peptidoglycan were also prepared as controls. Samples were incubated overnight at 37 °C, and then incubated at 100 °C for 15 min to inactivate lysozyme. For heat-inactivation of peptidoglycan, 600 μg of peptidoglycan suspended in water (300 μl) was incubated at 100 °C for 15 min. The samples were sonicated for 10 sec at setting 1 using a Branson sonifier model S-150D. These samples were used as inhibitor samples for antimicrobial activity assays.

Data set [10] has as its system Staphylococcus aureus. As to conditions: cited from earlier work. The source says:
We determined minimum inhibitory concentrations (MICs) of other ant ...

The conditions of data set [11]: cited from earlier work.

Values after ≈ are worked out from the molar mass of the structure shown. Non-standard residues stand in square brackets, D forms with d. Residues, ends and D or L forms follow the SMILES beside them.

The values that follow come from publication PMC5338256, “D-form KLKLLLLLKLK-NH2 peptide exerts higher antimicrobial properties than its L-form counterpart via an association with bacterial cell wall components” (Scientific Reports, 2017).

A word on the MIC: it is the least concentration at which growth counts as inhibited. Low readings indicate a more susceptible organism, high ones a less susceptible organism. `CC(C)C[C@@H](NC(=O)[C@H](N)CCCCN)C(=O)N[C@H](CCCCN)C(=O)N[C@H](CC(C)C)C(=O)N[C@H](CC(C)C)C(=O)N[C@H](CC(C)C)C(=O)N[C@H](CC(C)C)C(=O)N[C@H](CC(C)C)C(=O)N[C@H](CCCCN)C(=O)N[C@H](CC(C)C)C(=O)N[C@H](CCCCN)C(N)=O` [D-form KLKLLLLLKLK-NH2] (H-[dK][dL][dK][dL][dL][dL][dL][dL][dK][dL][dK]-NH2; N-terminus assumed): in [1] (S. aureus), the “fold by which the MIC of the D-form is lower than that of the L-form” value is recorded as 16 fold. Further, the MIC in [1] (pH 6) came out at 1 µg/mL (≈ 0.757 µM); in data set [2] it was 8 µg/mL (≈ 6.05 µM); in [3], 32 µg/mL (≈ 24.2 µM). Moreover, the “antimicrobial activity relative to the standard assay condition” value in [4] (10 min, in the absence of culture medium and bovine serum albumin) is recorded as “lower”. Moreover, the “antimicrobial activity (CFU), D-form compared with L-form” value in data set [4] (in the absence of culture medium and/or bovine serum albumin) was “higher antimicrobial activity”; in [4] (standard assay with culture medium and 0.2% BSA, triplicate plates) it was “higher antimicrobial activity”; in [5], “higher antimicrobial activity”; in data set [6] it was “higher antimicrobial activity”; in data set [7], “higher antimicrobial activity”. In data set [4] (10 min exposure), the “peptide concentration at which D-form and L-form displayed similar antimicrobial activity” value was found to be 1.9 µg/mL. Further, the “ethidium bromide influx rate” value in data set [8] is on record as “higher”. Moreover, the “inhibition of the antimicrobial effect by S. aureus peptidoglycan” value in data set [9] (40 μg/ml S. aureus peptidoglycan) is recorded as “almost inhibited”. In data set [9], the “inhibition of the antimicrobial activity by lipopolysaccharide from E. coli” value is recorded as “preferentially inhibited”. In addition, in [9], the “inhibition of the antimicrobial activity by peptidoglycan from E. coli” value is given as “weak inhibitory effect”. In addition, the “inhibition of the antimicrobial activity by synthetic E. coli lipid A” value in data set [9] is “preferentially inhibited”. Besides, the “inhibition of the antimicrobial effect by lipoteichoic acid from S. aureus” value in data set [9] is “inhibited the antimicrobial effect of both D-form and L-form peptides similarly”. In addition, the “antimicrobial activity, D-form compared with L-form” value in data set [10] is listed as “higher antimicrobial activity”. Further, the “persistence in bacterial culture medium, D-form compared with L-form” value in [11] is listed as “persist longer”.
